Assay results taken from article PMC12189828, “Substitution of Proline Residues by 4-Fluoro-L-Proline Affects the Mechanism of the Proline-Rich Antimicrobial Peptide Api137” (Antibiotics, 2025).
Blank lines part the entries; values can stand above or below the molecule they belong to. Where a SMILES comes first, the peptide text is derived from it. [ ]: non-standard residue; d: D form. The star is where a group is joined. Orn(α-tetramethylguanidino) = CN(C)C(=N[C@@H](CCCN)C(=O)*)N(C)C; Pro(trans-4-F) = O=C(O)[C@@H]1C[C@@H](F)CN1

Tests used:
E. coli RN31 = test: Growth inhibition of E. coli RN31 during 90 min exponential growth phase; type: cell-based, Escherichia coli; details: E. coli RN31, 33% TSB, peptide 8 µg/mL, 90 min, OD600; two biological replicates (n = 2)
Experimental: The following steps were performed on ice. Cells were harvested by centrifugation (4000× g, 4 °C, 25 min), washed with TICO buffer (20 mmol/L Hepes-KOH, pH 7.6, 6 mmol/L MgAc2, 30 mmol/L KAc), centrifuged (4000× g, 25 min, 4 °C), and stored at −80 °C. The cell pellet was suspended in TICO buffer (500 µL) and mixed with silica beads (zirconium glass pellets, 100 µm diameter; Carl Roth; Karlsruhe, Germany) to lyse the cells on a FastPrep-24^TM 5G (MP Biomedicals, Solon, OH, USA) using three disruption cycles (30 s, 6.0 m/s) interrupted by 1 min of incubation on ice after each cycle. Cell debris was removed by centrifugation (5000× g, 4 °C, 5 min), the supernatant was transferred to a new reaction tube, centrifuged (20,000× g, 4 °C, 20 min), the absorbance was recorded at 260 nm on a NanoPhotometer® NP80, and the sample was stored at −80 °C. […]

[1] = tested on: 50S subunit assembly / 70S ribosome in E. coli RN31; test: Ribosome profile analysis (RPA), sucrose gradient of E. coli RN31 lysate; type: cell-based, Escherichia coli; details: E. coli RN31, 33% TSB, peptide 8 µg/mL, 90 min, 5–25% sucrose gradient; n = 2 (Api137 n = 7)
Experimental: E. coli RN31 was grown in 33% TSB (37 °C, 200 rpm) from a starting OD600 of 0.05 to an OD600 of 0.2, measured on a NanoPhotometer® (NP80; Implen; Westlake Village, CA, USA), and divided into subcultures that were inoculated with a peptide ([…]) before being cultured for 90 min (37 °C, 200 rpm). The following steps were performed on ice. Cells were harvested by centrifugation (4000× g, 4 °C, 25 min), washed with TICO buffer (20 mmol/L Hepes-KOH, pH 7.6, 6 mmol/L MgAc2, 30 mmol/L KAc), centrifuged (4000× g, 25 min, 4 °C), and stored at −80 °C. The cell pellet was suspended in TICO buffer (500 µL) and mixed with silica beads (zirconium glass pellets, 100 µm diameter; Carl Roth; Karlsruhe, Germany) to lyse the cells on a FastPrep-24^TM 5G (MP Biomedicals, Solon, OH, USA) using three disruption cycles (30 s, 6.0 m/s) interrupted by 1 min of incubation on ice after each cycle. Cell debris was removed by centrifugation (5000× g, 4 °C, 5 min), the supernatant was transferred to a new reaction tube, centrifuged (20,000× g, 4 °C, 20 min), the absorbance was recorded at 260 nm on a NanoPhotometer® NP80, and the sample was stored at −80 °C.
A 5% (w/v) sucrose solution (6.5 mL) in TICO buffer containing 2-mercaptoethanol (4 mmol/L) was poured into an open-top centrifuge tube (13.2 mL, 14 × 89 mm, Beckman Coulter) and bottomed with a 25% (w/v) sucrose solution (6.5 mL) in TICO buffer containing 2-mercaptoethanol (4 mmol/L) using a cannula. The tube was sealed with parafilm and placed horizontally at 4 °C for 3 h and vertically at 4 °C for 30 min. A portion of the upper layer (550 µL) was replaced by lysate (500 µL, A260 = 30) and centrifuged using a swing-out rotor (SW 41 Ti, 52,500× g, 4 °C, 19 h) without a brake. The contents were transferred from bottom-up to obtain equal volumes in all wells of a black 96-well plate with a flat bottom (96 Well PP black Greiner Bio-One GmbH, Frickenhausen, Germany) using the Äkta Purifier 10 system, and absorbance was recorded at a wavelength of 254 nm. Fluorescence was measured in the plate using the PARADIGM at excitation (λex) and emission (λem) wavelengths of 485 nm and 535 nm for eGFP and 585 nm and 635 nm, respectively, for mCherry and normalized to the 70S ribosome peak (set to 100%).

[2] = tested on: in vitro expression of sfGFP in the presence of RF1; test: In vitro transcription-translation (iTT) assay of sfGFP in the presence of RF1; type: biochemical; details: peptide 5 µmol/L, RF1, 37 °C, 2 h, fluorescence; normalized to absence of PrAMPs; n = 3
Experimental: The sfGFP expression analysis relied on the NEB PureExpress Delta RF123 Kit (New England Biolabs, Frankfurt, Germany). The DNA template encoding sfGFP with a UAG stop codon was amplified from the pY71sfGFP vector by PCR using the primers sfGFP fwd ([…]) and sfGFP rev ([…]). The release factor RF1 of the kit was diluted 50-fold (v/v) in 1× Pure System Buffer (PSB, 1 mol/L magnesium acetate, 0.5 mol/L K3PO4 (pH 7.3), 1 mol/L potassium glutamate, 1 mol/L NH4Cl, 0.5 mol/L CaCl2, 1 mol/L spermidine, 0.1 mol/L putrescine, 0.1 mol/L DTT). sfGFP expression was performed in a freshly prepared mixture of kit solution A (2 µL), kit solution B (1.5 µL), 50-fold diluted RF1 (0.5 µL), sfGFP template (0.1325 pmol, 35 ng) or water as control (0.25 µL), PSB (0.25 µL), and a PrAMP (50 or 0 µmol/L) dissolved in water (0.5 µL). The reaction mixture was transferred to a black 384-well plate (flat bottom, PS, 784900, Greiner Bio-One GmbH), covered with a lid, and incubated (37 °C, 2 h) in a microplate reader (Gemini EM, Molecular Devices, San Jose, CA, USA). Fluorescence was recorded every 10 min (λex = 485 nm, λem = 535 nm).

[3] = target: 70S ribosomes isolated from E. coli BW25113 (Escherichia coli, UniProt P60723+P61175); test: Fluorescence polarization, competition with cf-Api137 for 70S ribosome binding (Ki); details: ratio of Ki to the Ki of Api137
Experimental: E. coli BW25113 were cultivated in LB medium and harvested by centrifugation (5000× g, 15 min, 4 °C) at an OD600 of 3–4. Cell pellets were washed in ribosome preparation buffer (20 mmol/L HEPES-KOH, 6 mmol/L MgCl2, 30 mmol/L NH4Cl, pH 7.6, 4 °C), centrifuged (4100× g, 30 min, 4 °C), and resuspended in ribosome preparation buffer (0.5 g/L) containing freshly added 2-mercaptoethanol (4 mmol/L) and lysozyme. Cells were incubated on ice for 30 min and disrupted in six cycles using a FastPrep-24^TM 5G instrument (MP Biomedicals, Eschwege, Germany) with the BigPrep 50 mL setting (40 s, 4.0 m/s), interrupted by one minute of incubation on ice between the cycles. After a centrifugation step (1620× g, 5 min, 4 °C), DNase I (5 U/mL) was added to the supernatant and incubated for 1 h on ice. Cell debris was removed by centrifugation at 16,000× g (30 min, 4 °C) and twice at 32,000× g (60 min, 4 °C). Crude ribosomes were obtained by centrifugation at 165,000× g (17 h, 4 °C). […]
Inhibition constants (Ki) were measured for the 70S ribosome extract using cf-labeled and unlabeled peptides in ribosome preparation buffer. […] Fluorescence polarization was determined on a PARADIGM^TM microplate reader in the top reading position (λex = 485 nm, λem = 535 nm). […] Ki values were calculated as described by Mathias and Jung.

[4] = target: 70S ribosome isolated from E. coli BW25113 (E. coli (endogenous in E. coli BW25113)); test: fluorescence polarisation; direct titration: 2-fold dilution series (22 steps) of crude 70S ribosome extract, cf-labeled peptide (10 uL, 40 nmol/L) added; ribosome preparation buffer (20 mmol/L HEPES-KOH, 6 mmol/L MgCl2, 30 mmol/L NH4Cl, pH 7.6); 28 +/- 1 C, 90 min
[5] = target: 70S ribosome isolated from E. coli BW25113 (E. coli (endogenous in E. coli BW25113)); test: fluorescence polarisation; competition: 2-fold dilution series (21 steps) of unlabeled peptide (20 uL, 300 umol/L) pre-incubated 90 min with crude 70S ribosome extract (at ~90% of the upper Kd plateau), then cf-Api137 (10 uL, 80 nmol/L) for 90 min; ribosome preparation buffer, 28 +/- 1 C; Ki calculated from IC50

Molecule: CC[C@H](C)[C@H](NC(=O)[C@H](Cc1ccc(O)cc1)NC(=O)[C@@H](NC(=O)[C@@H]1CCCN1C(=O)[C@H](CCCNC(=N)N)NC(=O)[C@H](CC(N)=O)NC(=O)[C@H](CC(N)=O)NC(=O)[C@H](CCCN)N=C(N(C)C)N(C)C)C(C)C)C(=O)N1CCC[C@H]1C(=O)N[C@@H](CCCNC(=N)N)C(=O)N1CCC[C@H]1C(=O)N[C@@H](CCCNC(=N)N)C(=O)N1C[C@H](F)C[C@H]1C(=O)N1CCC[C@H]1C(=O)N[C@@H](Cc1c[nH]cn1)C(=O)N1CCC[C@H]1C(=O)N[C@@H](CCCNC(=N)N)C(=O)N[C@@H](CC(C)C)C(=O)O [Api844] ({Orn(α-tetramethylguanidino)}-NNRPVYIPRPR[Pro(trans-4-F)]PHPRL-OH)
reduction of bacterial growth vs untreated control (E. coli RN31): 70%
RPA [pre-50S formation] [1]: yes
Residual iTT (sfGFP expression relative to no PrAMP) [2]: 28 ± 1.2%
fold higher Ki than Api137 [3]: 8 fold

Kd [4]: 244 nM
Molecule: 5(6)-carboxyfluorescein-labeled Api137 (peptide)

Ki [5]: 2.6 nM
Molecule: Api137 (peptide)
